Ends that are not written are not given here.

Particle concentration and Rate of increase data for eight substances are collected here from patent US20230151057A1, “LACTIC ACID BACTERIA GROWTH PROMOTER” (Asahi Group Holdings, Ltd., priority 2020, published 2023).

Holding throughout (assay type): cell-based
Experiment [1] deals with Lactobacillus plantarum. Briefly: Growth-promoting effect on Lactobacillus plantarum in modified MRS medium (particle count). To be noted: Example 5, peptide 0.25 mg/mL, 37° C., 18 hours; for Rate of increase: control = 100%. From the text:
Nitrogen sources in MRS medium were reduced to find a medium composition that achieves a total bacterial count of about 1.0×10^8 cell/mL to 1.0×10^9 cell/mL after culturing of each of the six bacterial strains Lactobacillus gasseri (FERNM BP-11331), Lactobacillus acidophilus (FERM BP-4981), Lactobacillus amylovorus (FERM BP-11255), Lactobacillus curvatus (NITE P-02033), Lactobacillus plantarum, and Lactobacillus brevis. This composition, named “modified MRS medium”, was used for the evaluation. Here, for the composition of the MRS medium, a composition described in a medium catalog provided by BD (Becton, Dickinson and Company) was used as a reference. The compositions of the MRS medium and the modified MRS medium are as follows. By chemical synthesis, 28 kinds of candidate peptides having the sequences shown below were provided. Each candidate peptide was added to the modified MRS medium at 0.25 mg/mL to provide a medium to be evaluated. The lactic acid bacterium Lactobacillus gasseri was inoculated at 1.0×10^7 cells/mL to the provided medium to be evaluated, and culture was carried out at a temperature of 37° C. for a culture period of 18 hours. The resulting culture was collected, and subjected to measurement of the particle concentration (particles/mL) as a characteristic value that can be used as an index of the bacterial cell growth, using a particle count analyzer (CDA-1000, Sysmex). The rate of increase (%) was calculated relative to a control value obtained using a medium to which no peptide was added, which was taken as 100%. For eight kinds of candidate peptides having the sequences shown below, the growth-promoting effect on a lactic acid bacterium was evaluated in the same manner as in Example 1 except that Lactobacillus plantarum was used instead of Lactobacillus gasseri.

Experiment [2] deals with Lactobacillus curvatus (NITE P-02033). Nature of the experiment: Growth-promoting effect on Lactobacillus curvatus in modified MRS medium (particle count). As to conditions: Example 4, peptide 0.25 mg/mL, 37° C., 18 hours; for Rate of increase: control = 100%. An excerpt: Nitrogen sources in MRS medium were reduced to find a medium composition that achieves a total bacterial count of about 1.0×10^8 cell/mL to 1.0×10^9 cell/mL after culturing of each of the six bacterial strains Lactobacillus gasseri (FERNM BP-11331), Lactobacillus acidophilus (FERM BP-4981), Lactobacillus amylovorus (FERM BP-11255), Lactobacillus curvatus (NITE P-02033), Lactobacillus plantarum, and Lactobacillus brevis. This composition, named “modified MRS medium”, was used for the evaluation. Here, for the composition of the MRS medium, a composition described in a medium catalog provided by BD (Becton, Dickinson and Company) was used as a reference. The compositions of the MRS medium and the modified MRS medium are as follows. By chemical synthesis, 28 kinds of candidate peptides having the sequences shown below were provided. Each candidate peptide was added to the modified MRS medium at 0.25 mg/mL to provide a medium to be evaluated. The lactic acid bacterium Lactobacillus gasseri was inoculated at 1.0×10^7 cells/mL to the provided medium to be evaluated, and culture was carried out at a temperature of 37° C. for a culture period of 18 hours. The resulting culture was collected, and subjected to measurement of the particle concentration (particles/mL) as a characteristic value that can be used as an index of the bacterial cell growth, using a particle count analyzer (CDA-1000, Sysmex). The rate of increase (%) was calculated relative to a control value obtained using a medium to which no peptide was added, which was taken as 100%. For eight kinds of candidate peptides having the sequences shown below, the growth-promoting effect on a lactic acid bacterium was evaluated in the same manner as in Example 1 except that Lactobacillus curvatus was used instead of Lactobacillus gasseri.

In experiment [3] the test system is Lactobacillus gasseri (FERM BP-11331). Nature of the experiment: Growth-promoting effect on Lactobacillus gasseri in modified MRS medium (particle count). From the text:
Nitrogen sources in MRS medium were reduced to find a medium composition that achieves a total bacterial count of about 1.0×10^8 cell/mL to 1.0×10^9 cell/mL after culturing of each of the six bacterial strains Lactobacillus gasseri (FERNM BP-11331), Lactobacillus acidophilus (FERM BP-4981), Lactobacillus amylovorus (FERM BP-11255), Lactobacillus curvatus (NITE P-02033), Lactobacillus plantarum, and Lactobacillus brevis. This composition, named “modified MRS medium”, was used for the evaluation. Here, for the composition of the MRS medium, a composition described in a medium catalog provided by BD (Becton, Dickinson and Company) was used as a reference. The compositions of the MRS medium and the modified MRS medium are as follows. By chemical synthesis, 28 kinds of candidate peptides having the sequences shown below were provided. Each candidate peptide was added to the modified MRS medium at 0.25 mg/mL to provide a medium to be evaluated. The lactic acid bacterium Lactobacillus gasseri was inoculated at 1.0×10^7 cells/mL to the provided medium to be evaluated, and culture was carried out at a temperature of 37° C. for a culture period of 18 hours. The resulting culture was collected, and subjected to measurement of the particle concentration (particles/mL) as a characteristic value that can be used as an index of the bacterial cell growth, using a particle count analyzer (CDA-1000, Sysmex). The rate of increase (%) was calculated relative to a control value obtained using a medium to which no peptide was added, which was taken as 100%. Using the dipeptide LF (Leu-Phe) and an equimolar mixture of leucine (L) and phenylalanine (F), culture was carried out in the same manner as in Example 1, and the growth-promoting effects of the dipeptide and the amino acid mixture on the lactic acid bacterium were evaluated. Using a dipeptide (LF) as the peptide, the growth-promoting effect on a lactic acid bacterium was evaluated in the same manner except that the concentration of the dipeptide added was 0.1 mg/mL, 0.25 mg/mL, or 1.0 mg/mL.

[4] abbreviates: Example 1, peptide 0.25 mg/mL, 37° C., 18 hours, inoculum 1.0×10^7 cells/mL.
Where [5] appears, read: Example 1, peptide 0.25 mg/mL, 37° C., 18 hours, control without peptide = 100%.

As for AGPQTF, the results for the Particle concentration in experiment [1], in experiment [2] and in experiment [3] (setting [4]) were 3.36e+09 mL⁻¹, 1.58e+08 mL⁻¹ and 2.5e+08 mL⁻¹, respectively. Besides, the results for the Rate of increase in experiment [1], in experiment [2] and in experiment [3] (setting [5]) were 108%, 111% and 126%, respectively.

On to “APKPDYPIA (listed as Saccharomyces cerevisiae) [Ala-Pro-Lys-Pro-Asp-Tyr-Pro-Ile-Ala]”, for which the values for the Particle concentration in experiment [1], in experiment [2] and in experiment [3] (setting [4]) were 3.45e+09 mL⁻¹, 1.6e+08 mL⁻¹ and 2.37e+08 mL⁻¹, respectively. In addition, the Rate of increase in experiment [1] turned out to be 111%; in experiment [2], 112%; in experiment [3] (setting [5]), 137%.

As to Leu-Phe [LF], the Particle concentration in experiment [1] was 3.32e+09 mL⁻¹; in experiment [2], 2.22e+08 mL⁻¹; in experiment [3] (Comparative Example 1, dipeptide vs equimolar amino acid mixture, cultured as in Example 1), 3.88e+08 mL⁻¹; in experiment [3] (setting [4]), 2.49e+08 mL⁻¹; in experiment [3] (Example 7, addition concentration 0.1 mg/mL), 2.38e+08 mL⁻¹; in experiment [3] (Example 7, addition concentration 0.25 mg/mL), 2.49e+08 mL⁻¹. Besides, in experiment [3] (Example 7, addition concentration 1.0 mg/mL), the Particle concentration was found to be 3.17e+08 mL⁻¹. Also, the Rate of increase worked out at 107% in experiment [1]; 124% in experiment [2]; 121% in experiment [3] (Comparative Example 1, dipeptide vs equimolar amino acid mixture, control = 100%); 118% in experiment [3] (setting [5]); 112% in experiment [3] (Example 7, addition concentration 0.1 mg/mL, control = 100%); 118% in experiment [3] (Example 7, addition concentration 0.25 mg/mL, control = 100%). The substance also yielded a Rate of increase in experiment [3] (Example 7, addition concentration 1.0 mg/mL, control = 100%) of 150%.

With “Leu-Pro-Trp-Gly (LPWG; listed as Saccharomyces cerevisiae)”, the Particle concentration came to 3.09e+09 mL⁻¹ in experiment [1], 1.97e+08 mL⁻¹ in experiment [2] and 2.45e+08 mL⁻¹ in experiment [3] (setting [4]). Also, the Rate of increase in experiment [1] is reported as 100%; in experiment [2], 109%; in experiment [3] (setting [5]), 142%.

In the case of “Pro-Ser-Val-Phe (PSVF; listed as Saccharomyces cerevisiae)”, the Particle concentration in experiment [1] was found to be 3.17e+09 mL⁻¹; in experiment [2] it was 1.68e+08 mL⁻¹; in experiment [3] (setting [4]), 2.32e+08 mL⁻¹. In addition, the Rate of increase in experiment [1] came to 102%; in experiment [2], 119%; in experiment [3] (setting [5]), 134%.

Consider Pro-Val-Phe [PVF], for which the Particle concentration in experiment [1] came to 2.92e+09 mL⁻¹; in experiment [2], 1.71e+08 mL⁻¹; in experiment [3] (setting [4]), 2.51e+08 mL⁻¹. Further, the results for the Rate of increase in experiment [1], in experiment [2] and in experiment [3] (setting [5]) were 94%, 95% and 137%, respectively.

Take Pro-Val-Tyr [PVY]: the Particle concentration came out at 3.23e+09 mL⁻¹ in experiment [1], 1.64e+08 mL⁻¹ in experiment [2] and 2.27e+08 mL⁻¹ in experiment [3] (setting [4]). In addition, the Rate of increase in experiment [1] came out at 104%; in experiment [2] it was 116%; in experiment [3] (setting [5]), 121%.

For “Val-Pro-Ala-Phe (VPAF; listed as Saccharomyces cerevisiae)”, the Particle concentration in experiment [1] was 3.27e+09 mL⁻¹; in experiment [2], 2.15e+08 mL⁻¹; in experiment [3] (setting [4]), 2.62e+08 mL⁻¹. For the same substance, the figures for the Rate of increase in experiment [1], in experiment [2] and in experiment [3] (setting [5]) were 105%, 117% and 152%, respectively.
